Laboratory results reported in US7008950B1, “Benzofurans as suppressors of neurodegeneration” (Takeda Chemical Industries, Ltd., priority 1997, dated 2006).

These compounds were tested on human neuroblastoma SK—N—SH cells (assay: Cell protective activity against β-amyloid 25-35-induced neurotoxicity (Alamar Blue cell viability)). Conditions: test compound 1 μM with β-amyloid 25-35 10 μM; rhIFN-γ-pretreated SK—N—SH cells; viability by Alamar Blue after 3 days; [(A−B)/(C−B)]×100.
Type: cell-based
Excerpt: Evaluation of cell protective activity against β-amyloid neurotoxicity in human neuroblastoma SK—N—SH cells.
• Human neuroblastoma SK—N—SH cells: obtained from American Type Tissue Culture Collection (ATCC). DMEM/F-12 medium: obtained from Nikken Biological Medicine Laboratory Co. • Ca^++ and Mg^++ free phosphate-buffered saline (PBS(−)): obtained Nikken Biological Medicine Laboratory Co. • N2 supplement™, and EDTA solution: obtained from Gibco BRL Co. • Fetal calf serum, and mixture of penicillin (5000 U/mL) and streptomycin (5 mg/mL): obtained from Bio Whittaker Co. • Recombinant human interferon gamma (rhIFN-γ): obtained from Wako Pure Chemical Co. • Alamar Blue™ reagent: obtained from AccuMed International, Inc. • Culture flasks: manufactured by Falcon Co. Collagen-coated, 96-well multi-plate: manufactured by Iwaki Glass Co. • β-amyloid 25-35: obtained from Bachem AG. • Other reagents: commercially-available special-grade chemicals. b) Test Method (1) Cultivation of SK—N—SH cells
SK—N—SH cells were sub-cultured in DMEM/F12 medium containing 5% FCS, 0.5% N2 supplement™, 1% of mixture of penicillin (5000 U/mL) and streptomycin (5 mg/mL), under 10 t CO2 and 90% air, using CO2 incubator. At sub-confluent condition, cells were harvested from culture flask with PBS(−) containing 2.5 mM EDTA, and plated at a density of 1.0×10^4 cells/100 μl of culture medium/well in collagen-coated 96-well multi-plate. The next day, 80 μl of culture medium was substituted with DMEM/F12 medium (containing neither FCS nor N2 supplement) containing 1.25 ng/mL of rhIFN-γ, and after 24 hr cultivation cells were used for cell toxicity assay mentioned below.
(2) Measurement of cell protective activity of test compounds against β-amyloid 25-35-induced neurotoxicity
After pretreatment of SK—N—SH cells with rhIFN-γ in collagen-coated 96 well multi-plate, cell toxicity assay was started by addition of β-amyloid 25-35 and test compound. Briefly, 80 μl of culture medium was removed, and 40 μl of β-amyloid 25-35 and 40 μl of test compound were added to cultures at the same time. The final concentrations of β-amyloid 25-35 and test compounds were 10 μM and 1 μM, respectively.
The test compound was dissolved at 10 mM in dimethylsulfoxide (DMSO) and diluted in DMEM/F12 medium. β-amyloid 25-35 was dissolved at 5 mM in sterile pure water, and stored at −80° C. Immediately before use, the stock solution β-amyloid 25-35 was diluted in DMEM/F12 medium and sonicated.
(3) Evaluation of cell protective activity of test compound
Cell viability was assessed by the reduction of Alamar Blue™ reagents, 3 days after starting of the cell toxicity assay. Briefly, 20 μl of culture medium was substituted with 20 μl of Alamar Blue™ reagents and incubated 4 hours. Absorbances were determined at wavelengths of 570 nm and 600 nm using a plate reader (MTP-32 Micro-plate Reader, manufactured by Corona Co.). Amount of reduced Alamar Blue reagents was determined by subtracting absorbance600 from absorbance570. The cell protective activity of the test compound was estimated according to the following equation: • Cell protective activity of compound [(A−B)/(C−B)]×100 (%) 20 where; • A: cell viability of the group treated with both the test compound and β-amyloid • B: cell viability of the group treated with β-amyloid only • C: cell viability of the control group Results
Cell viability of the group treated with both the test compound and β-amyloid was compared with that 30 group treated with β-amyloid only using Dunnett's test.
Cell viability of each group was determined using at least 4 culture well.

SMILES	Cell Protecting Activity (%)
Cc1c(C)c2c(c(C)c1OCc1ccccc1)C(c1ccc(C(C)C)cc1)C(C)(C)O2 (stereo not shown) [Example 1, 5-Benzyloxy-3-(4-isopropylphenyl)-2,2,4,6,7-pentamethyl-2,3-dihydrobenzofuran]	30.7
Cc1c(C)c2c(c(C)c1OCc1ccccc1)C(c1ccc(N(C)C)cc1)C(C)(C)O2 (stereo not shown) [Example 2, 5-Benzyloxy-3-[4-(dimethylamino)phenyl]-2,2,4,6,7-pentamethyl-2,3-dihydrobenzofuran]	27.9
Cc1c(C)c2c(c(C)c1OCc1ccccc1)CC(C)(CN1CCN(c3ccccc3)CC1)O2 (stereo not shown) [Example 3, 5-Benzyloxy-2,4,6,7-tetramethyl-2-(4-phenyl-1-piperazinyl)methyl-2,3-dihydrobenzofuran]	39.4
COc1ccc(COc2c(C)c(C)c3c(c2C)C(c2ccc(N4CCOCC4)cc2)C(C)(C)O3)cc1 (stereo not shown) [Example 7, 5-(4-Methoxybenzyloxy)-3-[4-(4-morpholinyl)phenyl]-2,2,4,6,7-pentamethyl-2,3-dihydrobenzofuran]	27.3
Cc1c(C)c2c(c(C)c1OCC=Cc1ccccc1)C(c1ccc(C(C)C)cc1)C(C)(C)O2 (stereo not shown) [Example 12, 3-(4-Isopropylphenyl)-2,2,4,6,7-pentamethyl-5-(3-phenyl-2-propen-1-yloxy)-2,3-dihydrobenzofuran]	44.8
Cc1c(C)c2c(c(C)c1OCCC(c1ccccc1)c1ccccc1)C(c1ccc(C(C)C)cc1)C(C)(C)O2 (stereo not shown) [Example 14, 5-(3,3-Diphenylpropyloxy)-3-(4-isopropylphenyl)-2,2,4,6,7-pentamethyl-2,3-dihydrobenzofuran]	44.2
Cc1c(C)c2c(c(C)c1OCCc1ccccc1)C(c1ccc(C(C)C)cc1)C(C)(C)O2 (stereo not shown) [Example 25, 3-(4-Isopropylphenyl)-2,2,4,6,7-pentamethyl-5-(2-phenylethyl)oxy-2,3-dihydrobenzofuran]	47.0
